Test results: the NIST ThermoML archive (doi:10.1021/je200820v)

How the values were obtained:
[1] = Liquid, Closed cell (Static) method
[2] = excess molar enthalpy (molar enthalpy of mixing); xn = mol fraction of the nth substance listed; settings: 303.15 K, 101 kPa, Liquid, Calvet calorimetry

CCN(CC)CCN [N,N-diethylethane-1,2-diamine]
[1]
Settings	vapor or sublimation pressure [kPa]
273.15 K	0.1291
293.15 K	0.5288
298.15 K	0.7256
303.15 K	0.9831
313.15 K	1.741
323.15 K	2.957
333.15 K	4.833
343.15 K	7.634
353.15 K	11.7
363.15 K	17.43

CCN(CC)CCN [N,N-diethylethane-1,2-diamine] + CCCCCCC
[2]
Settings	excess molar enthalpy [kcal/mol]
x1 = 0.0612	0.0679
x1 = 0.1118	0.115
x1 = 0.1488	0.143
x1 = 0.2038	0.179
x1 = 0.2452	0.201
x1 = 0.3051	0.222
x1 = 0.4078	0.24
x1 = 0.5068	0.239
x1 = 0.6156	0.216
x1 = 0.7084	0.183
x1 = 0.7471	0.164
x1 = 0.8058	0.135
x1 = 0.8841	0.0866

CCCCCCC [heptane]
[1]
Settings	vapor or sublimation pressure [kPa]
273.15 K	1.536
293.15 K	4.76
298.15 K	6.135
303.15 K	7.829
313.15 K	12.39
323.15 K	18.96
333.15 K	28.14
343.15 K	40.64
353.15 K	57.27
363.15 K	78.94
